Reference: ChEMBL document CHEMBL4834408, “Sesquiterpenoids from Chrysanthemum indicum with Inhibitory Effects on NO Production” (J Nat Prod, 2021)

How the values were obtained:
[1] = system: RAW264.7; experiment: Inhibition of LPS induced NO production in mouse RAW264.7 cells measured after 24 hrs by Griess reagent based assay; type: functional, cell-based; details: RAW264.7, 24 h
[2] = Cytotoxicity against mouse RAW264.7 cells assessed as reduction in cell viability measured after 24 hrs by MTT assay; type: cell-based

Row | IC50 [1] [µM] | Structure (SMILES) | CC50 at 24 h [2] [µM]
1 | 34.5 | COc1ccc(-c2cc(=O)c3c(O)cc(O)cc3o2)cc1O [DIOSMETIN] | –
2 | 87.5 | O=c1cc(-c2ccc(O)c(O)c2)oc2cc(O[C@@H]3O[C@H](CO)[C@@H](O)[C@H](O)[C@H]3O)cc(O)c12 [GALUTEOLIN] | > 100
3 | 45.4 | COc1ccc(-c2cc(=O)c3c(O)cc(O[C@@H]4O[C@H](CO)[C@@H](O)[C@H](O)[C@H]4O)cc3o2)cc1 [TILIANINE] | > 100
4 | 48.8 | CC1=CC[C@H](C(C)(C)O)CC1=O | 98
5 | 5.9 | COc1ccc(-c2cc(=O)c3c(O)cc(O)cc3o2)cc1 [ACACETIN] | 60.9
6 | > 100 | O=C(O)[C@H]1O[C@@H](Oc2cc(O)c3c(=O)cc(-c4ccc(O)c(O)c4)oc3c2)[C@H](O)[C@@H](O)[C@@H]1O | > 100
7 | 18.4 | O=c1cc(-c2ccc(O)cc2)oc2cc(O)cc(O)c12 [APIGENIN] | 65.1
8 | 3 | C=C1C(=O)O[C@H]2[C@H]1[C@@H](OC(=O)C(C)CC)CC(C)=C1C[C@@H]3O[C@]3(C)[C@@H]12 (stereo partly drawn) | 21.5
9 | 9.9 | C=C1C(=O)O[C@@H]2/C=C(\C)CC/C=C(\C)C[C@H](OC(=O)/C(C)=C\C)[C@@H]12 | 27

Second part, the molecule before the results:

Row | Structure (SMILES) | IC50 [1] [µM] | CC50 at 24 h [2] [µM]
10 | CC(=O)/C=C/[C@]1(O)C(C)(C)C[C@H](O)C[C@@]1(C)O | 29.9 | > 100
11 | COc1ccc([C@@H]2CC(=O)c3c(O)cc(O)cc3O2)cc1O [HESPERETIN] | 31.2 | > 100
12 | C=C1C(=O)O[C@H]2[C@H]1[C@@H](OC(=O)/C(C)=C\C)CC(C)=C1C[C@@H]3O[C@]3(C)[C@@H]12 | 0.2 | 21.7
13 | C=C[C@](C)(CC/C=C(\C)CC(=O)CC(C)C)O[C@@H]1O[C@H](CO)[C@@H](O)[C@H](O)[C@H]1O | > 100 | > 100
14 | C=C[C@](C)(CCC/C(C)=C\C(=O)C=C(C)C)O[C@@H]1O[C@H](CO)[C@@H](O)[C@H](O)[C@H]1O | 97.8 | > 100
15 | COc1ccc(-c2cc(=O)c3c(O)cc(O[C@@H]4O[C@H](C(=O)O)[C@@H](O)[C@H](O)[C@H]4O)cc3o2)cc1 | 92.4 | > 100
16 | C[C@@H]1O[C@@H](OC[C@H]2O[C@@H](Oc3cc(O)c4c(=O)cc(-c5ccc(O)c(O)c5)oc4c3)[C@H](O)[C@@H](O)[C@@H]2O)[C@H](O)[C@H](O)[C@H]1O | > 100 | > 100
17 | C=C[C@](C)(CC/C=C(\C)CC(=O)C=C(C)C)O[C@@H]1O[C@H](CO)[C@@H](O)[C@H](O)[C@H]1O | > 100 | > 100
18 | COc1ccc(-c2cc(=O)c3c(O)cc(O[C@@H]4O[C@H](CO[C@@H]5O[C@@H](C)[C@H](O)[C@@H](O)[C@H]5O)[C@@H](O)[C@H](O)[C@H]4O)cc3o2)cc1 [ACACIIN] | > 100 | > 100
19 | C=C1C(=O)O[C@@H]2[C@H]3C(C)=CC(=O)[C@H]3[C@@H](C)C[C@H](OC(=O)/C(C)=C\C)[C@@H]12 | 1.8 | 22.5
20 | CC1=CC[C@H]([C@](C)(O)C/C=C/C(C)(C)O)CC1=O | > 100 | > 100
21 | C=C[C@](C)(CCC/C(C)=C/C(=O)C=C(C)C)O[C@@H]1O[C@H](CO)[C@@H](O)[C@H](O)[C@H]1O | > 100 | > 100
22 | O=C(O)[C@H]1O[C@@H](Oc2cc(O)c3c(=O)cc(-c4ccc(O)cc4)oc3c2)[C@H](O)[C@@H](O)[C@@H]1O | > 100 | > 100
23 | C=C(C)C(O)CC[C@@](C)(O)[C@H]1CC=C(C)C(=O)C1 (stereo partly drawn) | > 100 | > 100
24 | CC1(C)C[C@H](O)C[C@@]2(C)OC(=O)C=C12 [LOLIOLIDE] | 56.7 | > 100
25 | O=c1cc(-c2ccc(O)cc2)oc2cc(O[C@@H]3O[C@H](CO)[C@@H](O)[C@H](O)[C@H]3O)cc(O)c12 [APIGETRIN] | 53.7 | > 100
26 | C=C[C@@](C)(O)C[C@H](O)/C=C(\C)CC(=O)C=C(C)C | 48.4 | > 100
27 | C=C1C(=O)O[C@@H]2[C@H]3C(C)=CC(=O)[C@@H]3[C@@H](C)C[C@H](OC(=O)/C(C)=C\C)[C@@H]12 | 27 | > 100
